Experiments:
Assay in all cases: Kinase profiling in a biochemical assay panel (mobility shift assays and ELISA), %-inhibition at 1 μM; selectivity entropy
[1] = molecular target: panel of more than 300 wild-type and mutant kinases (313 kinase panel) (Homo sapiens, UniProt O75582); settings: kinase MSK1; 1 μM
[2] = molecular target: T1, panel of more than 300 wild-type and mutant kinases (313 kinase panel) (Homo sapiens, UniProt O15264); settings: kinase p38δ; 1 μM
T1 sequence (O15264 1-365): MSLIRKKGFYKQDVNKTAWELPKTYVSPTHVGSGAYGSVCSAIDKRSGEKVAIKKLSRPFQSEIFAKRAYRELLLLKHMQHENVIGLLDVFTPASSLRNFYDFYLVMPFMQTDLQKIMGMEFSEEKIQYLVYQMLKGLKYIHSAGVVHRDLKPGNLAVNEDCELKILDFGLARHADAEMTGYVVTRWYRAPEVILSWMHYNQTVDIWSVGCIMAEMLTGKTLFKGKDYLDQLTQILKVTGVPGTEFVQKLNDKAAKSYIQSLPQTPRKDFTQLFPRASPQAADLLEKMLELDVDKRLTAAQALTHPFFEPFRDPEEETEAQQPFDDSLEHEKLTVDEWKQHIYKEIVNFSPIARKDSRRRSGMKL

[3] = molecular target: panel of more than 300 wild-type and mutant kinases (313 kinase panel) (Homo sapiens, UniProt P53779); settings: kinase JNK3; compound at 1 μM
[4] = molecular target: panel of more than 300 wild-type and mutant kinases (313 kinase panel) (Homo sapiens, UniProt Q86V86); settings: kinase PIM3; 1 μM
[5] = molecular target: panel of more than 300 wild-type and mutant kinases (313 kinase panel) (Homo sapiens, UniProt Q07912); settings: kinase ACK; 1 μM compound
[6] = molecular target: T2, panel of more than 300 wild-type and mutant kinases (313 kinase panel) (Homo sapiens, UniProt P00540); settings: kinase MOS; 1 μM
T2 sequence (P00540 1-346): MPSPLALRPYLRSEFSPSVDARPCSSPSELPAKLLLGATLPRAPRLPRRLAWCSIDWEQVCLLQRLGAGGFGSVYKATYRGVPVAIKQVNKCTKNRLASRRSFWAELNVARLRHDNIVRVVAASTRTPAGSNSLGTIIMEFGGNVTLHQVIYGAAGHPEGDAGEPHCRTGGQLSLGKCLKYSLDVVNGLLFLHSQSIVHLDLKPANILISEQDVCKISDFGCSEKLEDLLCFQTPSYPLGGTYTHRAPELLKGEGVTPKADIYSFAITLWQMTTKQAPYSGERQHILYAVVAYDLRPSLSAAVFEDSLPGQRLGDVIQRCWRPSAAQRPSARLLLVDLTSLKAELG

[7] = molecular target: panel of more than 300 wild-type and mutant kinases (313 kinase panel) (Homo sapiens, UniProt Q7KZI7)
[8] = molecular target: T3, panel of more than 300 wild-type and mutant kinases (313 kinase panel) (Homo sapiens, UniProt Q99683); settings: kinase MAP3K5; compound at 1 μM
T3 sequence (Q99683 1-1374): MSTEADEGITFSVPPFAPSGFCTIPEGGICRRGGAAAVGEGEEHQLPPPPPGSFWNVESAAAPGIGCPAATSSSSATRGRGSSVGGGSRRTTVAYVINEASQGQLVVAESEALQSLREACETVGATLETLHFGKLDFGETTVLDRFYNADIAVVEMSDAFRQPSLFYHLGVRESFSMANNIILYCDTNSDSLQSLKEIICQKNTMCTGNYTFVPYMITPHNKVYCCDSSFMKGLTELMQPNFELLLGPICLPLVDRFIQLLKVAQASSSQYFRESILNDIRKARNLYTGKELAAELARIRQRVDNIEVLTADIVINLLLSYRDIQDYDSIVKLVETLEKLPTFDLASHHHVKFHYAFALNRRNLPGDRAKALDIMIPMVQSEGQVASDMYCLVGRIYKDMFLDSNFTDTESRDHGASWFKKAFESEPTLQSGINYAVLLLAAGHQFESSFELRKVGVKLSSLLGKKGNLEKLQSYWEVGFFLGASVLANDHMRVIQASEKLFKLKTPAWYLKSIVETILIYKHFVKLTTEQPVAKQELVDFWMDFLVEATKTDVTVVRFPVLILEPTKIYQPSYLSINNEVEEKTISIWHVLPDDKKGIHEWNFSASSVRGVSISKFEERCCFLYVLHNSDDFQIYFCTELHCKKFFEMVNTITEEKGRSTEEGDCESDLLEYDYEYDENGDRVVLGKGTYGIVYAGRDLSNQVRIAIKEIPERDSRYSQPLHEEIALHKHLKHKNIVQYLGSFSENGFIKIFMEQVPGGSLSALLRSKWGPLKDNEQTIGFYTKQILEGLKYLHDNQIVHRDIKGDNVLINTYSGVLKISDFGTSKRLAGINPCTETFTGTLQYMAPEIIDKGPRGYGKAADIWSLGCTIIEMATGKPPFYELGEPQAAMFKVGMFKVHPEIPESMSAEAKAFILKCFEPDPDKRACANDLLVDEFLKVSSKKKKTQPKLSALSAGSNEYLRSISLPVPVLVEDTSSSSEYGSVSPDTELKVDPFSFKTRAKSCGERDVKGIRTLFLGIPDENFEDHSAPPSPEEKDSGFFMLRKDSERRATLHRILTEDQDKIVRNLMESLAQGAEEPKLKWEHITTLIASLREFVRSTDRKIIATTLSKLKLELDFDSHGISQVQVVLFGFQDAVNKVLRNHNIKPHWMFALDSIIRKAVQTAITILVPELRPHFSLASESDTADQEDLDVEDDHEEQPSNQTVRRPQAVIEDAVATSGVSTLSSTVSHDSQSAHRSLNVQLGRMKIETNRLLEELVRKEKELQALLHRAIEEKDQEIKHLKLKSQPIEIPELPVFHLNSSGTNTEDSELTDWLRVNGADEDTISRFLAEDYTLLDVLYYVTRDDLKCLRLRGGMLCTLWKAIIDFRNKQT

Chain of panel of more than 300 wild-type and mutant kinases (313 kinase panel) (Homo sapiens, UniProt P53779) (P53779 whole entry, change not shown): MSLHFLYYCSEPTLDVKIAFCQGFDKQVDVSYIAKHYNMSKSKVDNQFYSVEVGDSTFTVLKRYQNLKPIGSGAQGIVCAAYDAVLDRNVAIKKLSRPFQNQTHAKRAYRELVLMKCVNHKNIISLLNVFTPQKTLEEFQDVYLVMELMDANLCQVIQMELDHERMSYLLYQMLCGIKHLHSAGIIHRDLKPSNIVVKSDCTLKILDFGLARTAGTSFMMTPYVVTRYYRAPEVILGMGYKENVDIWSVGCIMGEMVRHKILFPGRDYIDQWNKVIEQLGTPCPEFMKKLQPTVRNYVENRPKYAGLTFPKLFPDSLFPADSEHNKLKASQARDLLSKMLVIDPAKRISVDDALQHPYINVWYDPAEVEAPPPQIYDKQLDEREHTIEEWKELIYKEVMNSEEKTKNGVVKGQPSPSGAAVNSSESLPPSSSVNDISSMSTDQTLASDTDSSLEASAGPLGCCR
Chain of panel of more than 300 wild-type and mutant kinases (313 kinase panel) (Homo sapiens, UniProt Q07912) (Q07912 whole entry, change not shown): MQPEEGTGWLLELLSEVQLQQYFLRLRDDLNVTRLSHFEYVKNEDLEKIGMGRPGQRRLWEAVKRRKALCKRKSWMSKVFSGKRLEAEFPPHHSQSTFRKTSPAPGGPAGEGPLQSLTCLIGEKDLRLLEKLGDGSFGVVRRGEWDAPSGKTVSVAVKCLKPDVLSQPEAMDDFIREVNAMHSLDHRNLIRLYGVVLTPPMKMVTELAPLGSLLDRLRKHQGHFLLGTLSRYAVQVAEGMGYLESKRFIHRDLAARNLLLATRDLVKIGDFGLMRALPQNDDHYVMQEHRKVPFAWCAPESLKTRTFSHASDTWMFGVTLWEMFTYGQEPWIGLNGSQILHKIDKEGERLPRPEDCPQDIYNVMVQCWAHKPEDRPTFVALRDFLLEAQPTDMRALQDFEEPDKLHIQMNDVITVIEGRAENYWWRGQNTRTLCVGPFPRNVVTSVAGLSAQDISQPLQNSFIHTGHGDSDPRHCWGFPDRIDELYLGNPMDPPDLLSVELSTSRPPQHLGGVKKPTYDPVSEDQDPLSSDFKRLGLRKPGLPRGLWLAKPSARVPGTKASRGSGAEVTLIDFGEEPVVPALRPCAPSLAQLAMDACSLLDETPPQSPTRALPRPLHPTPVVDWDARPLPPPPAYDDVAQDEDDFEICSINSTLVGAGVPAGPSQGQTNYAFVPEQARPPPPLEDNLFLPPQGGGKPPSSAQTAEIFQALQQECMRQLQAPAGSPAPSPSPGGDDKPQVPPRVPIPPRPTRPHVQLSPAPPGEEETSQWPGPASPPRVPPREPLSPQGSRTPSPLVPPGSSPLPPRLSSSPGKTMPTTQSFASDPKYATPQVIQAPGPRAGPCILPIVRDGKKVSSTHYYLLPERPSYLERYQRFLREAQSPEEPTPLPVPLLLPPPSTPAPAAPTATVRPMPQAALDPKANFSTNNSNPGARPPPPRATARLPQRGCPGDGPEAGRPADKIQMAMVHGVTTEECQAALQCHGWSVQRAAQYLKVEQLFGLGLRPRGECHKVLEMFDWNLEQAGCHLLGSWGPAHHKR

| Structure (SMILES) | %-inhibition of MSK1 [1] [%] | %-inhibition of p38δ [2] [%] | %-inhibition of JNK3 [3] [%] | %-inhibition of PIM3 [4] [%] | %-inhibition, ACK [5] [%] | %-inhibition of MOS [6] [%] | %-inhibition of MARK2 ([7]; kinase MARK2, compound at 1 μM) [%] | %-inhibition of MAP3K5 [8] [%] | %-inhibition of MARK2 ([7]; 1 µM) [%] |
| --- | --- | --- | --- | --- | --- | --- | --- | --- | --- |
| CO[C@H]1C[C@@H]2CC[C@@H](C)[C@@](O)(O2)C(=O)C(=O)N2CCCC[C@H]2C(=O)O[C@H]([C@H](C)C[C@@H]2CC[C@@H](OCCO)[C@H](OC)C2)CC(=O)[C@H](C)/C=C(\C)[C@@H](O)[C@@H](OC)C(=O)[C@H](C)C[C@H](C)/C=C/C=C/C=C/1C [everolimus] | -2 | -9 | -4.31 | -4 | -4.62 | 3.3 | -6 | 2.56 | – |
| CCN(CC)CCNC(=O)c1c(C)[nH]c(/C=C2\C(=O)Nc3ccc(F)cc32)c1C [sunitinib] | – | – | – | 21 | – | – | – | – | – |
| CC(=O)Nc1cccc(-n2c(=O)n(C3CC3)c(=O)c3c(Nc4ccc(I)cc4F)n(C)c(=O)c(C)c32)c1 [trametinib] | -0.531 | -2.7 | -2.37 | 8.44 | -5.39 | 42 | -6 | 17 | – |
| CN(C)C/C=C/C(=O)Nc1cc2c(Nc3ccc(F)c(Cl)c3)ncnc2cc1O[C@H]1CCOC1 [afatinib] | – | – | – | – | – | -2 | – | – | – |
| N#CC[C@H](C1CCCC1)n1cc(-c2ncnc3[nH]ccc23)cn1 [ruxolitinib] | 37 | 0.0923 | -3 | -9 | 93 | 8 | – | 6 | – |
| CC(C)(C)c1nc(-c2cccc(NS(=O)(=O)c3c(F)cccc3F)c2F)c(-c2ccnc(N)n2)s1 [dabrafenib] | 0.0759 | -3.43 | 5.59 | 9 | 24 | -12 | 2.85 | – | – |
| C[C@@H](Oc1cc(-c2cnn(C3CCNCC3)c2)cnc1N)c1c(Cl)ccc(F)c1Cl [crizotinib] | -0.641 | -3.41 | -1.87 | -4 | – | 1.25 | 26 | 1.11 | – |
| Cc1ccc(C(=O)Nc2ccc(CN3CCN(C)CC3)c(C(F)(F)F)c2)cc1C#Cc1cnc2cccnn12 [ponatinib] | – | – | – | – | 99 | 1.59 | – | – | – |
| Cc1ccc(Nc2nccc(N(C)c3ccc4c(C)n(C)nc4c3)n2)cc1S(N)(=O)=O [pazopanib] | 0.901 | -0.586 | – | -4 | 13 | -12 | 8 | 18 | – |
| Cc1nc(Nc2ncc(C(=O)Nc3c(C)cccc3Cl)s2)cc(N2CCN(CCO)CC2)n1 [dasatinib] | – | 0.799 | – | -1.78 | – | – | – | -1.69 | – |
| COc1cc(Nc2c(C#N)cnc3cc(OCCCN4CCN(C)CC4)c(OC)cc23)c(Cl)cc1Cl [bosutinib] | – | – | – | – | 97 | 44 | – | – | 58 |
